For assay [1], the target named is T1, MOP (Homo sapiens, UniProt P35372). Put plainly: cAMP inhibition assay. The conditions noted are these: N = 3. In kind it is cell-based.
The target of assay [2] is T2, KOP wt (Homo sapiens, UniProt P41145). The settings on record: N = 3.
Assay [3] addresses T1, MOP. The conditions noted are these: N = 3.
In assay [4] the target is T3, KOP (Homo sapiens, UniProt P41145). In kind it is cell-based.
In assay [5] the target is T1, MOP. Put plainly: Bias factor towards G protein in MOP. The assay is classed as cell-based. The conditions noted are these: GTPγ[35S] vs BRET arrestin recruitment; DAMGO as reference agonist. A general note: BRET reads energy transfer from a luciferase to a nearby fluorophore.
In assay [6] the target is T3, KOP. In kind it is cell-based. This is another data set of the same source.
The target in assay [7] is T2, KOP wt. Put plainly: cell-based.
Assay [8] deals with T1, MOP. Put plainly: cell-based.
Assay [9] concerns the target T1, MOP. Put plainly: biochemical.
In assay [10] the target is T3, KOP. Put plainly: biochemical.
Assay [11] concerns the target T3, KOP.
For assay [12], the target named is T1, MOP.
Assay [13] deals with human kappa-opioid receptor (KOP) containing C-terminal Renilla luciferase (RLuc8) (human, UniProt P41145). Put plainly: FRET or BRET.
The test system of assay [14] is KOP. Put plainly: Radioligand. In kind it is binding, human. The settings on record: agonist U69,593; KOP+Nb39 vs KOP only.

Several values for one entry are separate records, joined by “and”; a condition that tells them apart may be missing. Identical values can stand only once. Like-named read-outs stand apart in the source and are kept apart here.

T3 sequence (P41145 whole entry): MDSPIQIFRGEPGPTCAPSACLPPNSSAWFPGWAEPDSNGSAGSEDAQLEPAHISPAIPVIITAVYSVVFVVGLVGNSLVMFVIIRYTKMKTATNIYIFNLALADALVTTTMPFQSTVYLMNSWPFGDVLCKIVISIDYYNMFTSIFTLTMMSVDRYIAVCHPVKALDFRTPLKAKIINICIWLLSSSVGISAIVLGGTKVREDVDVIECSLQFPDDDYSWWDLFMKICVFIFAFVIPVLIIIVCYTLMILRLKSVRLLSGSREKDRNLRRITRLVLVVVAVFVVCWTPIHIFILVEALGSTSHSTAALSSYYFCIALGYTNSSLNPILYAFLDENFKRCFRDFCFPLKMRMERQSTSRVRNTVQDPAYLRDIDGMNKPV
human kappa-opioid receptor (KOP) containing C-terminal Renilla luciferase (RLuc8), sequence (P41145 whole entry): as above
T2 sequence (P41145 whole entry): as above
T1 sequence (P35372 whole entry): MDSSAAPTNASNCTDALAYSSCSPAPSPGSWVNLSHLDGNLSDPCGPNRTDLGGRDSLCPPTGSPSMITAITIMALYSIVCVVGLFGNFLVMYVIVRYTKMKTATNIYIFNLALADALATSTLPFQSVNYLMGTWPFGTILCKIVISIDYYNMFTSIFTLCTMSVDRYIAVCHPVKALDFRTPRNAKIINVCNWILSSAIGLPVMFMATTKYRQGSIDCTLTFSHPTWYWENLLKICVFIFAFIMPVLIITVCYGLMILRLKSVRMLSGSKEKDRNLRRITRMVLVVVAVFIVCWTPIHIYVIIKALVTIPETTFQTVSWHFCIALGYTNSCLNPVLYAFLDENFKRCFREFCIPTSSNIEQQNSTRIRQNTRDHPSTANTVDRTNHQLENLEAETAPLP

Broadly, the EC50 is the concentration at which the effect is half-maximal. On to `O=C(N[C@@H]1CC[C@@]2(O)[C@H]3Cc4ccc(O)c5c4[C@@]2(CCN3CC2CC2)[C@H]1O5)c1cccc(I)c1` [IBNtxA], for which the “Emax Gi activation (cAMP inhibition) in MOP” value in assay [1] stood at 99±6. The EC50 is 56 ± 12 pM in assay [1] (read-out: EC50 Gi activation (cAMP inhibition) in MOP); 32 ± 10 pM in assay [2] (read-out: EC50 arrestin recruitment (Tango) in KOP wt); 75 pM and 100 pM in [3] (read-out: EC50 arrestin recruitment (Tango) in MOP); 2 ± 1 pM in assay [4] (read-out: EC50 Gi activation (cAMP inhibition) in KOP). Moreover, the “Emax arrestin recruitment in KOP wt, Figure 5D” value in [2] (Figure 5D, comparison with Y312^7.35W) amounted to 112±10. In [2] (method: normalized to % SalA stimulation), the “Emax arrestin recruitment (Tango) in KOP wt” value was 95±8 and 113±12. The “Emax arrestin recruitment (Tango) in MOP” value in [3] was 25±6 and 23±4. Besides, in assay [4], the “Emax Gi activation (cAMP inhibition) in KOP” value worked out at 96±1. The “Bias factor towards G protein in MOP, 10^ΔΔLog(τ/KA)” value in [5] came out at 9.

As to `CC(C)[C@@H](CN1CC[C@@](C)(c2cccc(O)c2)[C@@H](C)C1)NC(=O)[C@H]1Cc2ccc(O)cc2CN1` [JDTic], the “Nb39 recruitment to KOP (in words)” value in [6] was “no effect”.

The Emax is the greatest response seen or fitted, relative to the assay's reference. As to `C=CCN1CC[C@]23c4c5ccc(O)c4OC2[C@H](NC(=O)c2ccc(F)c(I)c2)CC[C@@]3(O)C1C5` (stereo partly drawn) [MP903, N-((4aS,7R,12bS)-3-allyl-4a,9-dihydroxy-2,3,4,4a,5,6,7,7a-octahydro-1H-4,12-methanobenzofuro[3,2-e]isoquinolin-7-yl)-4-fluoro-3-iodobenzamide], the EC50 in assay [7] was 74 ± 12 pM; in assay [8] it was 120 ± 50 pM. For the same molecule, the maximal response (Emax) in [7] (read-out: Emax arrestin recruitment (Tango) in KOP wt) turned out to be 108 ± 10%; in [8] (read-out: Emax arrestin recruitment (Tango) in MOP), 33 ± 5%.

One may read the Ki as a measure of affinity in units of concentration, obtained from inhibition or displacement. High values mean lower affinity, low ones higher affinity. Regarding `O=C(N[C@@H]1C=CC2C3Cc4ccc(O)c5c4[C@@]2(CCN3CC2CC2)C1O5)c1ccccc1` (stereo partly drawn) [MP1108, N-((7R,12bS)-3-(cyclopropylmethyl)-9-hydroxy-2,3,4,4a,7,7a-hexahydro-1H-4,12-methanobenzofuro[3,2-e]isoquinolin-7-yl)benzamide], the Ki was 420 ± 60 pM in assay [9] and 420 ± 50 pM in [10].

Take `O=C(N[C@@H]1C=CC2C3Cc4ccc(O)c5c4[C@@]2(CCN3CC2CC2)C1O5)c1cccc(Cl)c1` (stereo partly drawn) [MP1109, 3-Chloro-N-((7R,12bS)-3-(cyclopropylmethyl)-9-hydroxy-2,3,4,4a,7,7a-hexahydro-1H-4,12-methanobenzofuro[3,2-e]isoquinolin-7-yl)benzamide]: the Ki came to 160 ± 50 pM in assay [9] and 130 ± 30 pM in assay [10].

On to `O=C(N[C@@H]1C=CC2C3Cc4ccc(O)c5c4[C@@]2(CCN3CC2CC2)C1O5)c1cccc(Br)c1` (stereo partly drawn) [MP1110, 3-Bromo-N-((7R,12bS)-3-(cyclopropylmethyl)-9-hydroxy-2,3,4,4a,7,7a-hexahydro-1H-4,12-methanobenzofuro[3,2-e]isoquinolin-7-yl)benzamide], for which the inhibition constant (Ki) in assay [9] is 180 ± 40 pM; in assay [10], 120 ± 40 pM.

For the molecule `O=C(N[C@@H]1C=CC2C3Cc4ccc(O)c5c4[C@@]2(CCN3CC2CC2)C1O5)c1ccccc1I` (stereo partly drawn) [MP1111, N-((7R,12bS)-3-(cyclopropylmethyl)-9-hydroxy-2,3,4,4a,7,7a-hexahydro-1H-4,12-methanobenzofuro[3,2-e]isoquinolin-7-yl)-2-iodobenzamide], the Ki in assay [9] turned out to be 200 ± 50 pM; in assay [10], 270 ± 60 pM.

In the case of `O=C(N[C@@H]1C=CC2C3Cc4ccc(O)c5c4[C@@]2(CCN3CC2CC2)C1O5)c1ccc(I)cc1` (stereo partly drawn) [MP1112, N-((7R,12bS)-3-(cyclopropylmethyl)-9-hydroxy-2,3,4,4a,7,7a-hexahydro-1H-4,12-methanobenzofuro[3,2-e]isoquinolin-7-yl)-4-iodobenzamide], the values for the Ki in assay [9] and in assay [10] were 170 ± 30 pM and 120 ± 30 pM, respectively.

On to `O=C(N[C@@H]1C=CC2C3Cc4ccc(O)c5c4[C@@]2(CCN3CC2CC2)C1O5)c1cccc(C(F)(F)F)c1` (stereo partly drawn) [MP1113, N-((7R,12bS)-3-(cyclopropylmethyl)-9-hydroxy-2,3,4,4a,7,7a-hexahydro-1H-4,12-methanobenzofuro[3,2-e]isoquinolin-7-yl)-3-(trifluoromethyl)benzamide], for which the Ki came out at 240 ± 60 pM in assay [9] and 140 ± 70 pM in assay [10].

As to `O=C(N[C@@H]1C=CC2C3Cc4ccc(O)c5c4[C@@]2(CCN3CC2CC2)C1O5)c1cccc(F)c1` (stereo partly drawn) [MP1114, N-((7R,12bS)-3-(cyclopropylmethyl)-9-hydroxy-2,3,4,4a,7,7a-hexahydro-1H-4,12-methanobenzofuro[3,2-e]isoquinolin-7-yl)-3-fluorobenzamide], the results for the inhibition constant (Ki) in assay [9] and in assay [10] were 270 ± 80 pM and 160 ± 70 pM, respectively.

Consider `Cc1cccc(C(=O)N[C@@H]2C=CC3C4Cc5ccc(O)c6c5[C@@]3(CCN4CC3CC3)C2O6)c1` (stereo partly drawn) [MP1115, N-((7R,12bS)-3-(cyclopropylmethyl)-9-hydroxy-2,3,4,4a,7,7a-hexahydro-1H-4,12-methanobenzofuro[3,2-e]isoquinolin-7-yl)-3-methylbenzamide], for which the inhibition constant Ki in assay [9] stood at 250 ± 60 pM; in [10], 180 ± 80 pM.

As for `CN(C(=O)/C=C/c1ccoc1)[C@@H]1CC[C@@]2(O)[C@H]3Cc4ccc(O)c5c4[C@@]2(CCN3CC2CC2)[C@H]1O5` [Nalfurafine, reference compound], affinity in [9] was put at a Ki of 4200 ± 210 pM.

Turning to `CN(C(=O)/C=C/c1ccoc1)[C@@H]1CC[C@@]2(O)[C@H]3Cc4cccc5c4[C@@]2(CCN3CC2CC2)[C@H]1O5` [compound 18], the Ki in assay [11] came out at 1500 ± 50 pM; in assay [12] it was 533000 ± 65000 pM.

B1: Nb39 containing a C-terminal YFP (VHH)
VHH: QVQLVESGGGLVRPGGSLRLSCVDSERTSYPMGWFRRAPGKEREFVASITWSGIDPTYADSVADRFTTSRDVANNTLYLQMNSLKHEDTAVYYCAARAPVGQSSSPYDYDYWGQGTQVTVSS
For the molecule B1, in [13], the “EC50 of the agonist MP1104 for recruitment of Nb39 to KOP (BRET)” value was determined as 120 ± 20 pM; the “EC50 of the agonist SalA for recruitment of Nb39 to KOP (BRET)” value is 11300 pM and 11200 pM and 10200 pM; the “EC50 of the agonist U69,593 for recruitment of Nb39 to KOP (BRET)” value stood at 3780 ± 40 pM; the “EC50 of the partial agonist diprenorphine for recruitment of Nb39 to KOP (BRET)” value came out at 5200 ± 30 pM. The “Attenuation of agonist dissociation rate at KOP” value in assay [14] was “approximately 6 fold”.
